Key:
Format in all cases: functional
Mus musculus [1] = species on record: Mus musculus; assay: Induction of IL-4 production in BALB/c mouse after 6 hrs by ELISA
Mus musculus [2] = species on record: Mus musculus; assay: Induction of IFN-gamma production in BALB/c mouse after 6 hrs by ELISA
Mus musculus [3] = species on record: Mus musculus; assay: Ratio of induction of IFN-gamma production to induction of IL-4 production in BALB/c mouse after 6 hrs

Row | Structure (SMILES) | Activity (Mus musculus [1]) [pg/mL] | Activity (Mus musculus [2]) [pg/mL] | Ratio (Mus musculus [3])
1 | CCCCCCCCCCCCCCCCCCCCCCCCCC(=O)O[C@H](CCCCCCCCCCCCCC)[C@@H](O)[C@@H](O)CC[C@H]1O[C@H](CO)[C@H](O)[C@H](O)[C@H]1O | 83 | 90 | 1.37
2 | CCCCCCCCCCCCCCCCCCCCCCCCCC(=O)N[C@@H](CO[C@H]1O[C@H](CO)[C@H](O)[C@H](O)[C@H]1O)[C@H](O)[C@H](O)CCCCCCCCCCCCCC [RGI-7000] | 1450 | 12145 | 8.35
